From publication PMC5796027, “Thiopurine Drugs Repositioned as Tyrosinase Inhibitors” (International Journal of Molecular Sciences, 2017)
Entries after “also recorded” stand apart in the source; their conditions may differ. Blank lines part the entries; values can stand above or below the molecule they belong to.

Columns and labels:
[1] = molecular target: T1, mushroom tyrosinase (Agaricus bisporus, UniProt C7FF04); experiment: Mushroom tyrosinase enzyme inhibition assay (dopachrome absorbance at 475 nm); type: biochemical; conditions: for inhibition of mushroom tyrosinase (in words): enzyme assay with 0.01% Triton X-100; for LE, ligand efficiency: −1.37 × (Log10Ki)/HA, HA = number of heavy atoms
Method: (§1) Enzyme activity and kinetics experiments with inhibitors—All of the reagents used in this study were purchased from ChemBridge (San Diego, CA, USA), Sigma-Aldrich (St. Louis, MO, USA), or Tokyo Chemical Industry (Tokyo, Japan). The reaction solution for the enzyme assay was prepared with 200 nM mushroom tyrosinase and inhibitors in phosphate-buffered saline (PBS), containing 5% dimethyl sulphoxide and 0.01% (w/v) Triton X-100. After incubating the mixture at 30 °C for 10 min, 500 μM L-tyrosine was added as the substrate. […] The IC50 was evaluated by analysing different concentrations of each inhibitor. The inhibitory constants (Ki) were converted from the IC50 values using the Km obtained from kinetics experiments and substrate concentration based on the Cheng–Prusoff equation [60]. A series of substrates at concentrations of 0.25, 0.33, 0.4, 0.5, 0.67, and 1 mM were used to obtain the respective velocities (V) for enzyme inhibitory kinetics. The concentrations of each inhibitor were varied and comprised the range that included the IC50 value. Four models (competitive, uncompetitive, non-competitive, and mixed) that were derived from the Michaelis-Menten equation were used to fit the kinetic parameters, maximum velocity (Vmax), Michaelis constant (Km), and the dissociation constants between the substrate-free enzyme and inhibitor (Kic) and the substrate-bound enzyme and inhibitor (Kiu). The data from all the concentrations of the substrate and inhibitor were simultaneously fitted nonlinearly by minimising the χ^2 value, defined as the sum of the squared deviations between experimental and fitted values for each model. The appropriate model was selected based on the F-test with χ^2 values from the four models, coupled with the extraction of the related parameters. All of the fittings and statistical analyses in this study were computed by using MATLAB® (MathWorks, Natick, MA, USA).
Target sequence in this assay (C7FF04 1-392): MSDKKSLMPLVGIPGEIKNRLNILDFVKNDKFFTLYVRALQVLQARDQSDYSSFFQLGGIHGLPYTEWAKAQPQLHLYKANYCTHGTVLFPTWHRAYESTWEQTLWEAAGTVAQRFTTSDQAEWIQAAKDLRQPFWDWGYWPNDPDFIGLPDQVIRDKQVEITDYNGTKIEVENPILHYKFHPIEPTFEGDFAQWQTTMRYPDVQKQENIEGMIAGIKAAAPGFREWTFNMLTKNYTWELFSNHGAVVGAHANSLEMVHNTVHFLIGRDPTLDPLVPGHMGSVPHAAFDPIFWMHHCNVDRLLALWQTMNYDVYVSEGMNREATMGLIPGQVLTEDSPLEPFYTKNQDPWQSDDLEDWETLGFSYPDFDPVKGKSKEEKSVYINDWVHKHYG

[2] = design: method as in PMID 22587354, PMID 18551414, PMID 15667143; conditions: extracted from the ZINC database ref 33,34,35; cited from earlier work
[3] = tested on: B16F10 murine melanoma cells; experiment: Melanin content assay in B16F10 cells; type: cell-based; conditions: 10, 20 and 50 μM tested, 48 h
Method: (§2) Cell-based activity assays with inhibitors—The melanin content and MTT conversion were measured in B16F10 murine melanoma cells that were purchased from the Korean Cell Line Bank (Seoul, Korea). When the density of B16F10 cells reached 1 × 10^5 cells, the test inhibitors (10, 20, and 50 μM) and 3-isobutyl-1-methylxanthine (IBMX, 100 μM) were added, and the cells were incubated for 48 h. The amount of melanin released into the extracellular area was quantified by measuring the absorbance at 405 nm, and was subsequently expressed as a percentage relative to the untreated control. The change in the reduction of the MTT dye into formazan in the cell was quantitatively interpreted as the cellular toxicity induced by the inhibitor. The inhibition of tyrosinase was also estimated using the B16F10 cell lysates, as described previously [28]. In brief, the cells were lysed in PBS supplemented with 1% (w/v) Triton X-100, centrifuged at 14,000 g for 30 min, and then the supernatants were dialysed to remove Triton X-100. After adding 500 μM L-DOPA and the inhibitors (10, 20, and 50 μM) to the prepared lysates, the change in absorbance over time at 475 nm was measured. The decrease in absorbance was calculated relative to the absorbance of the untreated controls.

[4] = tested on: melanin contents; design: method as in PMID 23123645, PMID 23411395, PMID 22901670; conditions: higher concentrations (>100 μM) ref 44,45,46; cited from earlier work
[5] = molecular target: T1, mushroom tyrosinase; experiment: Enzyme inhibitory kinetics with nonlinear fitting of Michaelis-Menten models; type: biochemical; conditions: for Mechanism of inhibition: model chosen by χ2 and F-test among competitive, uncompetitive, non-competitive, mixed; for Ki: nonlinear data fitting, competitive model, read-out: kinetically fitted Ki
Method: as §1
Target sequence in this assay (C7FF04 1-392): as above

[6] = molecular target: T1, mushroom tyrosinase; experiment: Differential scanning fluorimetry (DSF); type: binding; conditions: 0.5 μM protein, 200 μM inhibitor, control without inhibitor 51.8 °C
Method: DSF—The stability of mushroom tyrosinase in the presence and absence of inhibitors was assessed using DSF using a […] (RT-PCR) CFX96 system (BioRad, Hercules, CA, USA). […] The Tm value, which is the mid-point melting temperature, was calculated from a nonlinear fit of the temperature-dependent fluorescent intensity I(T), expressed as the Boltzmann equation: I(T)=LL+UL−LL/1+exp(Tm−T/a), where UL and LL are related to the baseline and top of the curves, respectively, and a is the steepness of the slope. Only data in the range of 35–65 °C were used for the fitting.
Target sequence in this assay (C7FF04 1-392 limits assumed): as the sequence (C7FF04 1-392) above

[7] = molecular target: T2, mammalian tyrosinase (Mus musculus, UniProt P11344); experiment: Tyrosinase inhibition in B16F10 cell lysates (L-DOPA substrate); type: biochemical, murine; conditions: 10, 20, 50 μM inhibitor, 500 μM L-DOPA
T2 construct: we performed an enzymatic assay with melanoma B16F10 cell lysates; endogenous in cells; host or cells: B16F10 murine melanoma cells (Korean Cell Line Bank), Triton X-100 lysate, dialysed supernatant
T2 sequence (P11344 19-533): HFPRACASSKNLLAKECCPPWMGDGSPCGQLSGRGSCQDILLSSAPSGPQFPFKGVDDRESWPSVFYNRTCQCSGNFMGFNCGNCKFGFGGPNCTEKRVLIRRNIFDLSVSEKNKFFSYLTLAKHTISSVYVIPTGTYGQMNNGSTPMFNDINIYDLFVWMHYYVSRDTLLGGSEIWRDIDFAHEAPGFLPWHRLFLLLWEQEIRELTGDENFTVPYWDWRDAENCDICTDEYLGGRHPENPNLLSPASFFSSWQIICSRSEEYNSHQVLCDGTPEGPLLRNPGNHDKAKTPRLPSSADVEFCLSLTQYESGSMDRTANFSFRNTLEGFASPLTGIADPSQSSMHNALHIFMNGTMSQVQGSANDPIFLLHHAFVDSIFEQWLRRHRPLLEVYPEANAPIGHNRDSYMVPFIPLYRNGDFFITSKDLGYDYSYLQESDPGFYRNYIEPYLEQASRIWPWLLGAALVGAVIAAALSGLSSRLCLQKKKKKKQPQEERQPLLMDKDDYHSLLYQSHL
Method: as §2

[8] = tested on: human hepatocytes; conditions: up to several tens of μM ref 43; cited from earlier work
[9] = molecular target: tyrosinase; conditions: cited from earlier work; for reported inhibition of tyrosinase through direct binding: literature survey ref 36,37

Compound: NC(CC(=O)O)C(=O)O (racemic) [D,L-aspartic acid]
inhibition of mushroom tyrosinase (in words) [1]: only thioguanine exerted inhibitory action

Compound: Cn1cnc([N+](=O)[O-])c1Sc1ncnc2nc[nH]c12 [Azathioprine, azathioprine]
Ki [1]: > 1000 µM
inhibition of mushroom tyrosinase (in words) [1]: but not azathioprine, exerted an inhibitory activity; also recorded: poor inhibitor
LogP [2]: 1.15

Compound: Nc1nc2nc[nH]c2c(=O)[nH]1 [Guanine, guanine]
Ki [1]: > 1000 µM
inhibition of mushroom tyrosinase (in words) [1]: only thioinosine inhibited tyrosinase
LogP [2]: −0.77

Compound: O=c1[nH]cnc2nc[nH]c12 [Hypoxanthine, hypoxanthine]
Ki [1]: > 1000 µM
inhibition of mushroom tyrosinase (in words) [1]: only thioinosine inhibited tyrosinase
LogP [2]: −0.35

Compound: O=c1cc(CO)occ1O [Kojic acid, kojic acid]
reduction of melanin content (in words) [3]: marginal
LogP [2]: −0.16
decrease of melanin contents [4]: meaningful decreases

Ki ([1]; read-out: Ki): 16 µM
LE, ligand efficiency [1]: 0.61
Mechanism of inhibition [5]: Competitive
Mechanism of inhibition ([5]; listed as mercaptopurine): competitive inhibitors
Ki [5]: 29 µM
Tm of tyrosinase in complex with inhibitor [6]: 49.0 ± 0.2 °C
Tm of tyrosinase in complex with inhibitor ([6]; listed as mercaptopurine): 49.0 °C
inhibition of tyrosinase in B16F10 cell lysates (in words) [7]: highest inhibition
Compound: Sc1ncnc2nc[nH]c12 [Mercaptopurine, mercaptopurine]
inhibition of tyrosinase in B16F10 cell lysates (in words) ([7]; listed as mercaptopurine): inhibited melanin syntheses in a concentration-dependent manner
reduction of melanin content (in words) [3]: less effective
LogP [2]: 1.00
cytotoxicity in human hepatocytes [8]: less cytotoxic up to several tens of μM

Compound: N[C@@H](CSCC(=O)O)C(=O)O [S-carboxymethyl-L-cysteine]
inhibition of mushroom tyrosinase (in words) [1]: only thioguanine exerted inhibitory action

Compound: Nc1nc2nc[nH]c2c(=S)[nH]1 [Thioguanine, thioguanine]
inhibition of mushroom tyrosinase (in words) [1]: only thioguanine exerted inhibitory action
Ki ([1]; read-out: Ki): 52 µM
Mechanism of inhibition [5]: Competitive
Mechanism of inhibition ([5]; listed as thioguanine): competitive inhibitors
Ki [5]: 40 µM
Tm of tyrosinase in complex with inhibitor [6]: 49.8 ± 0.2 °C
Tm of tyrosinase in complex with inhibitor ([6]; listed as thioguanine): 49.8 °C
inhibition of tyrosinase in B16F10 cell lysates (in words) [7]: inhibited melanin syntheses in a concentration-dependent manner
reduction of melanin content (in words) [3]: markedly reduced the melanin content at 20 and 50 μM
LogP [2]: 0.60

Ki ([1]; read-out: Ki): 8 µM
LE, ligand efficiency [1]: 0.34
Mechanism of inhibition [5]: Competitive
Mechanism of inhibition ([5]; listed as thioinosine): competitive inhibitors
Ki [5]: 14 µM
Tm of tyrosinase in complex with inhibitor [6]: 51.0 ± 0.2 °C
Tm of tyrosinase in complex with inhibitor ([6]; listed as thioinosine): 51.0 °C
Compound: OC[C@H]1O[C@@H](n2cnc3c(S)ncnc32)[C@H](O)[C@@H]1O [Thioinosine, thioinosine]
inhibition of tyrosinase in B16F10 cell lysates (in words) [7]: inhibited melanin syntheses in a concentration-dependent manner
reduction of melanin content (in words) [3]: markedly reduced the melanin content at 20 and 50 μM
LogP [2]: −0.90

Compound: Nn1c(S)nnc1-c1ccncc1 [ZINC509439, 4-amino-5-(4-pyridyl)-4H-1,2,4-triazole-3-thiol]
Ki ([9]; BindingDB entry ref 48, read-out: reported Ki): 1 µM

Compound: O=Cc1ccc(O[C@@H]2O[C@H](CO)[C@@H](O)[C@@H](O)[C@H]2O)cc1 [ZINC5234422, 4-(β-D-allopyranosyloxy)benzaldehyde]
IC50 ([9]; BindingDB entry ref 48, read-out: half-maximal inhibitory concentration (IC50)): 94 µM

Compound: Nc1ccc(C(=O)NCC(=O)O)cc1 [aminohippuric acid]
reported inhibition of tyrosinase through direct binding [9]: has been reported

Compound: O=C(O)c1cc(-c2ccc(F)cc2F)ccc1O [diflunisal]
reported inhibition of tyrosinase through direct binding [9]: has been reported

Compound: O=C(O)c1cccnc1Nc1cccc(C(F)(F)F)c1 [nifumic acid]
inhibition of mushroom tyrosinase (in words) [1]: only thioguanine exerted inhibitory action

Compound: CCCN(CCC)S(=O)(=O)c1ccc(C(=O)O)cc1 [probenecid]
inhibition of mushroom tyrosinase (in words) [1]: only thioguanine exerted inhibitory action

Compound: COc1ccc(/C=C/C(=O)Nc2ccccc2C(=O)O)cc1OC [tranilast]
inhibition of mushroom tyrosinase (in words) [1]: only thioguanine exerted inhibitory action
